“And” between values parts separate entries of the source, which are not always exact repeats. Equal entries are not always repeated. ± gives the expanded uncertainty stated by the source.
Conditions: Gas, Buoyancy - hydrostatic balance with magnetic suspension - two sinkers

FC(F)C(F)(F)F [pentafluoroethane]
Conditions	mass density
283.15 K, 207.2 kPa	10.978 ± 0.012 kg/m3 and 10.98 ± 0.012 kg/m3
283.15 K, 442.7 kPa	24.675 ± 0.022 kg/m3 and 24.667 ± 0.022 kg/m3
283.15 K, 617.4 kPa	35.904 ± 0.032 kg/m3 and 35.92 ± 0.032 kg/m3
283.15 K, 710.7 kPa	42.388 ± 0.04 kg/m3
283.15 K, 710.8 kPa	42.398 ± 0.04 kg/m3
283.15 K, 758.3 kPa	45.855 ± 0.044 kg/m3 and 45.853 ± 0.044 kg/m3
283.15 K, 811.7 kPa	49.881 ± 0.047 kg/m3 and 49.877 ± 0.047 kg/m3
283.15 K, 828 kPa	51.141 ± 0.049 kg/m3 and 51.137 ± 0.049 kg/m3
283.15 K, 857 kPa	53.429 ± 0.052 kg/m3 and 53.417 ± 0.052 kg/m3
283.15 K, 872.2 kPa	54.64 ± 0.054 kg/m3
283.15 K, 872.3 kPa	54.652 ± 0.054 kg/m3
283.15 K, 880 kPa	55.27 ± 0.055 kg/m3 and 55.283 ± 0.055 kg/m3
283.15 K, 889.1 kPa	56.021 ± 0.056 kg/m3
283.15 K, 889.2 kPa	56.023 ± 0.056 kg/m3
283.15 K, 901.7 kPa	57.048 ± 0.056 kg/m3 and 57.055 ± 0.057 kg/m3
293.15 K, 205.9 kPa	10.502 ± 0.012 kg/m3
293.15 K, 206 kPa	10.492 ± 0.012 kg/m3
293.15 K, 413.1 kPa	21.853 ± 0.019 kg/m3
293.15 K, 413.2 kPa	21.867 ± 0.019 kg/m3
293.15 K, 605 kPa	33.264 ± 0.03 kg/m3 and 33.278 ± 0.03 kg/m3
293.15 K, 799.7 kPa	45.976 ± 0.043 kg/m3
293.15 K, 799.8 kPa	45.993 ± 0.043 kg/m3
293.15 K, 901.5 kPa	53.187 ± 0.05 kg/m3 and 53.196 ± 0.05 kg/m3
293.15 K, 1000.4 kPa	60.669 ± 0.06 kg/m3
293.15 K, 1000.5 kPa	60.666 ± 0.06 kg/m3
293.15 K, 1051.5 kPa	64.739 ± 0.065 kg/m3 and 64.718 ± 0.065 kg/m3
293.15 K, 1101.2 kPa	68.839 ± 0.072 kg/m3
293.15 K, 1101.3 kPa	68.86 ± 0.072 kg/m3
293.15 K, 1133.2 kPa	71.588 ± 0.075 kg/m3 and 71.578 ± 0.075 kg/m3
293.15 K, 1149.6 kPa	73.019 ± 0.077 kg/m3
293.15 K, 1149.7 kPa	73.016 ± 0.077 kg/m3
293.15 K, 1170.5 kPa	74.869 ± 0.08 kg/m3
293.15 K, 1170.6 kPa	74.882 ± 0.08 kg/m3
293.15 K, 1181.8 kPa	75.887 ± 0.081 kg/m3
293.15 K, 1182 kPa	75.908 ± 0.081 kg/m3
293.15 K, 1192.1 kPa	76.823 ± 0.082 kg/m3
293.15 K, 1192.2 kPa	76.841 ± 0.082 kg/m3
293.15 K, 1200.9 kPa	77.624 ± 0.082 kg/m3
293.15 K, 1201 kPa	77.644 ± 0.083 kg/m3
303.15 K, 225.1 kPa	11.079 ± 0.012 kg/m3 and 11.067 ± 0.012 kg/m3
303.15 K, 411.9 kPa	20.874 ± 0.018 kg/m3 and 20.883 ± 0.018 kg/m3
303.15 K, 602.3 kPa	31.549 ± 0.028 kg/m3 and 31.562 ± 0.028 kg/m3
303.15 K, 800.1 kPa	43.526 ± 0.04 kg/m3 and 43.535 ± 0.04 kg/m3
303.15 K, 999.2 kPa	56.733 ± 0.055 kg/m3
303.15 K, 999.3 kPa	56.74 ± 0.055 kg/m3
303.15 K, 1202.4 kPa	71.762 ± 0.073 kg/m3 and 71.771 ± 0.073 kg/m3
303.15 K, 1299.2 kPa	79.657 ± 0.085 kg/m3
303.15 K, 1299.4 kPa	79.674 ± 0.085 kg/m3
303.15 K, 1406.6 kPa	89.099 ± 0.097 kg/m3
303.15 K, 1406.7 kPa	89.124 ± 0.097 kg/m3
303.15 K, 1450.2 kPa	93.212 ± 0.1 kg/m3 and 93.199 ± 0.1 kg/m3
303.15 K, 1481.2 kPa	96.221 ± 0.11 kg/m3
303.15 K, 1481.3 kPa	96.231 ± 0.11 kg/m3
303.15 K, 1505.2 kPa	98.609 ± 0.12 kg/m3 and 98.623 ± 0.12 kg/m3
303.15 K, 1520.5 kPa	100.175 ± 0.12 kg/m3
303.15 K, 1520.6 kPa	100.195 ± 0.12 kg/m3
303.15 K, 1537.3 kPa	101.933 ± 0.12 kg/m3
303.15 K, 1537.4 kPa	101.917 ± 0.12 kg/m3
303.15 K, 1565.1 kPa	104.879 ± 0.13 kg/m3
303.15 K, 1565.8 kPa	104.956 ± 0.13 kg/m3
313.15 K, 203.4 kPa	9.623 ± 0.012 kg/m3 and 9.618 ± 0.012 kg/m3
313.15 K, 404.5 kPa	19.688 ± 0.017 kg/m3
313.15 K, 404.6 kPa	19.685 ± 0.017 kg/m3
313.15 K, 602.7 kPa	30.217 ± 0.026 kg/m3 and 30.212 ± 0.026 kg/m3
313.15 K, 801.5 kPa	41.504 ± 0.038 kg/m3 and 41.496 ± 0.038 kg/m3
313.15 K, 1002 kPa	53.773 ± 0.051 kg/m3 and 53.76 ± 0.051 kg/m3
313.15 K, 1199.3 kPa	66.926 ± 0.066 kg/m3 and 66.915 ± 0.066 kg/m3
313.15 K, 1398.2 kPa	81.578 ± 0.086 kg/m3
313.15 K, 1398.3 kPa	81.585 ± 0.086 kg/m3
313.15 K, 1604.4 kPa	98.7 ± 0.11 kg/m3
313.15 K, 1604.5 kPa	98.71 ± 0.11 kg/m3
313.15 K, 1705.9 kPa	108.153 ± 0.13 kg/m3 and 108.152 ± 0.13 kg/m3
313.15 K, 1814.1 kPa	119.179 ± 0.15 kg/m3 and 119.18 ± 0.15 kg/m3
313.15 K, 1900.7 kPa	128.938 ± 0.17 kg/m3 and 128.932 ± 0.17 kg/m3
313.15 K, 1951.9 kPa	135.196 ± 0.19 kg/m3 and 135.193 ± 0.19 kg/m3
313.15 K, 1976.7 kPa	138.379 ± 0.19 kg/m3 and 138.387 ± 0.19 kg/m3
313.15 K, 1990.3 kPa	140.201 ± 0.2 kg/m3 and 140.173 ± 0.2 kg/m3
313.15 K, 2001.8 kPa	141.759 ± 0.21 kg/m3
313.15 K, 2002 kPa	141.763 ± 0.2 kg/m3
323.15 K, 196.2 kPa	8.951 ± 0.012 kg/m3 and 8.953 ± 0.012 kg/m3
323.15 K, 495.8 kPa	23.505 ± 0.02 kg/m3 and 23.498 ± 0.02 kg/m3
323.15 K, 798.1 kPa	39.455 ± 0.035 kg/m3 and 39.458 ± 0.035 kg/m3
323.15 K, 999.5 kPa	50.95 ± 0.047 kg/m3
323.15 K, 999.6 kPa	50.954 ± 0.047 kg/m3
323.15 K, 1199 kPa	63.156 ± 0.061 kg/m3 and 63.162 ± 0.061 kg/m3
323.15 K, 1399 kPa	76.417 ± 0.077 kg/m3 and 76.411 ± 0.077 kg/m3
323.15 K, 1599.7 kPa	90.933 ± 0.097 kg/m3 and 90.927 ± 0.097 kg/m3
323.15 K, 1798.9 kPa	106.993 ± 0.12 kg/m3
323.15 K, 1799 kPa	106.996 ± 0.12 kg/m3
323.15 K, 2000.3 kPa	125.421 ± 0.16 kg/m3 and 125.435 ± 0.16 kg/m3
323.15 K, 2100.4 kPa	135.708 ± 0.18 kg/m3 and 135.695 ± 0.18 kg/m3
323.15 K, 2201.4 kPa	147.071 ± 0.21 kg/m3
323.15 K, 2201.5 kPa	147.082 ± 0.21 kg/m3
323.15 K, 2301.3 kPa	159.592 ± 0.23 kg/m3 and 159.61 ± 0.23 kg/m3
323.15 K, 2350 kPa	166.311 ± 0.27 kg/m3
323.15 K, 2350.1 kPa	166.298 ± 0.27 kg/m3
323.15 K, 2400.2 kPa	173.712 ± 0.29 kg/m3 and 173.74 ± 0.29 kg/m3
323.15 K, 2430 kPa	178.427 ± 0.32 kg/m3
323.15 K, 2430.1 kPa	178.468 ± 0.32 kg/m3
323.15 K, 2451.8 kPa	182.037 ± 0.33 kg/m3 and 182.009 ± 0.33 kg/m3
323.15 K, 2469.3 kPa	185.047 ± 0.35 kg/m3 and 185.021 ± 0.34 kg/m3
